# Source: the NIST ThermoML archive (doi:10.1021/je700186v)
# Numbers after ± are expanded uncertainties.
# Details: Crystal; visual observation
structure (smiles),measurement,value
"C1CN2CCN1CC2 [1,4-diazabicyclo[2.2.2]octane]",Normal melting temperature,159.30 ± 1.1 °C
